Assay results published in patent US9464063B2, “Benzo [B] [1,4] oxazin derivatives as calcium sensing receptor modulators” (LUPIN ATLANTIS HOLDINGS SA, priority 2011, dated 2016).
Counter-ions that a name gives are not always drawn.

Target: T1, Calcium sensing receptor (hCaSR) (Homo sapiens, UniProt P41180)
T1 construct: expressed in transfected cells
T1 sequence (P41180 20-1078): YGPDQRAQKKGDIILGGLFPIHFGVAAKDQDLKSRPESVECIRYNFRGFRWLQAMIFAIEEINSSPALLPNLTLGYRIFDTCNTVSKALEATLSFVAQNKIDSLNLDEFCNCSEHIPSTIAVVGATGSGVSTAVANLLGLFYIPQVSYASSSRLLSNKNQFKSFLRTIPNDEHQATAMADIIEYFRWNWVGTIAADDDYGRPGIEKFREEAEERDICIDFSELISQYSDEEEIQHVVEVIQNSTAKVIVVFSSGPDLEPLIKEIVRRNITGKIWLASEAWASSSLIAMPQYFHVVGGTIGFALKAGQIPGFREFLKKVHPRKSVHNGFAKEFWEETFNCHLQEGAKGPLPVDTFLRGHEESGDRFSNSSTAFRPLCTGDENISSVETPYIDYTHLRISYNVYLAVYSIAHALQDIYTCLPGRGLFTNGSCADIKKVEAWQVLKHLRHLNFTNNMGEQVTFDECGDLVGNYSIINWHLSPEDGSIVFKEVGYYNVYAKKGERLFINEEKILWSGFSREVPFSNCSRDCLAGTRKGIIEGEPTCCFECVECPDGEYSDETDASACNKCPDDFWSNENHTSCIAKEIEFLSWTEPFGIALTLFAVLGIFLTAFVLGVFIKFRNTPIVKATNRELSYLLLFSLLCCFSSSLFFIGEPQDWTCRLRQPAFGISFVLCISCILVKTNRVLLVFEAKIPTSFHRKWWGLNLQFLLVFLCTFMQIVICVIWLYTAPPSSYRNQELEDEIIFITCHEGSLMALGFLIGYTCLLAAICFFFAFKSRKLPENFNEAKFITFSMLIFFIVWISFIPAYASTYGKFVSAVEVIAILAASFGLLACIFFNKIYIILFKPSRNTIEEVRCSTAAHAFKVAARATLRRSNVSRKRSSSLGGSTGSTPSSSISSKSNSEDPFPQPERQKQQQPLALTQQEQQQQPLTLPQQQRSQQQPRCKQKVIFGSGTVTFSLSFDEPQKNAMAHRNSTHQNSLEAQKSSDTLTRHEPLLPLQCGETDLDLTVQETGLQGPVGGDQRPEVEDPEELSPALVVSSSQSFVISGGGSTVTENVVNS
Test: In-vitro assay of calcimimetics through modulation of calcium sensing receptor: increase in intracellular calcium [Ca2+]i, FLIPR
Format: cell-based
Details: stably transfected HEK293 cells expressing hCaSR; Fluo4NW dye; 0.3 mM CaCl2; 8-point assay; read-out: EC50 Range
Method: In-Vitro Assay Method of Calcimemtics Through Modulation of Calcium Sensing Receptor (CaSR):
The ability of the compounds to modulate Calcium sensing receptor is determined by measuring an increase in intracellular calcium [Ca^2+]i. Stably transfected HEK293 cells expressing hCaSR_pTriEx-3 hygro vector are developed. Cells are grown overnight on a 96-well plate to 80% confluency in Ham's F12 containing 20% FBS at 37° C., 5% CO2. Subsequently, cells are washed extensively with 20 mM HEPES buffer containing 126 mM NaCl, 1 mM MgCl2 and 4 mM KCl to remove serum components that might interfere with the assay. Cells are loaded with calcium sensing Fluo4NW dye in HEPES base buffer containing 0.1% BSA and 1 mg/ml glucose for 30 minutes to measure changes in intracellular calcium. The activities of the compounds are measured in FLIPR using 0.3 mM CaCl2 in 20 mM HEPES base buffer. The effectiveness of the compound to modulate receptor activity is determined by calculating the EC50 responses for that compound in an 8-point assay and plotted using GraphPad Prism 5.

Row | Compound | EC50 [nM]
1 | Cc1cc(N2CC(CCN[C@H](C)c3cccc4ccccc34)Oc3ccccc32)ccc1OCC(=O)O (stereo partly drawn) [Example 144a, 2-(2-Methyl-4-(2-(2-(((R)-1-(naphlhalen-1-yl)ethyl)amino)ethyl)-2H-benzo[b] [1,4]oxazin-4(3H)-yl)phenoxy)aceticacid hydrochloride] | < 20
2 | Cc1ccc(N2CC(CCN[C@H](C)c3cccc4ccccc34)Oc3ccccc32)c(C)c1C(=O)O (stereo partly drawn) [Example 148a, 2,6-Dimethyl-3-(2-(2-(((R)-1-(naphthalen-1-yl)ethyl)amino)ethyl)-2H-benzo[b] [1,4]oxazin-4(3H)-yl) benzoic acid hydrochloride] | < 20
3 | Cc1ccc(CN2CC(CCN[C@H](C)c3cccc4ccccc34)Oc3ccccc32)cc1C(=O)O (stereo partly drawn) [Example 177a, 2-Methyl-5-((2-(2-(((R)-1-(naphthalen-1-yl)ethyl)amino)ethyl)-2H-benzo[b][1,4]oxazin-4(3H)-yl)methyl)benzoic acid hydrochloride] | < 20
